Laboratory results as given in patent US8168651B2, “Protein kinase modulators” (Cylene Pharmaceuticals, Inc., priority 2008, dated 2012).
Where two headings read alike, the source gives them in different places.

Tests used:
[1] = test system: HCT-116 human colorectal carcinoma cells; experiment: Cell-proliferation assay using Alamar Blue dye; assay type: cell-based; settings: Homo sapiens;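 further: cells exposed to compound for about 4 days, then Alamar Blue added and dye fluorescence read after about 4 h, compared with medium-only control wells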
[2] = molecular target: recombinant human PIM1 (Homo sapiens (Human), UniProt P11309); experiment: PIM-1 kinase activity in cell-free in vitro assay; assay type: biochemical; settings: for inhibition at 0.5 µM: read-out: PIM-1: % inh 500 nM
Chain of recombinant human PIM1 (P11309 whole entry): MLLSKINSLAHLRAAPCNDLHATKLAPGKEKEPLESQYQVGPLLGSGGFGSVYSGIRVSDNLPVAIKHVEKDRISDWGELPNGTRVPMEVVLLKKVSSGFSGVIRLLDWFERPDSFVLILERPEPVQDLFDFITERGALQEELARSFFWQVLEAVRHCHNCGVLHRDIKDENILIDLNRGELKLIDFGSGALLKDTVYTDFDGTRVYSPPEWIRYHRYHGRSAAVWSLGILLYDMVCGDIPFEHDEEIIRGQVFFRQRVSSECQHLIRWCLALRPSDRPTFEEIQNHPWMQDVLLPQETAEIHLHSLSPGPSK

[3] = HCT-116, read-out: HCT-116 (uM), cell proliferation modulatory activity, HCT-116, first column
[4] = HCT-116, HCT-116, second column, read-out: HCT-116 (uM), cell proliferation modulatory activity
[5] = HCT-116, HCT-116, second HCT-116 column (c8), read-out: HCT-116 (uM), cell proliferation modulatory activity
[6] = 500 nM compound, cell-free assay

| SMILES | IC50 [1, 3] [µM] | inhibition at 0.5 µM ([2]; 500 nM compound, cell-free) [%] | IC50 [1, 5] [µM] | inhibition at 0.5 µM [2, 6] [%] | also measured |
| --- | --- | --- | --- | --- | --- |
| O=C(O)c1ccc2c(c1)nc(OCCCO)c1ccsc12 | 10 | -34.7 |  |  |  |
| O=C(O)c1ccc2c(c1)nc(NCCCO)c1ccsc12 | 10 | -0.688 |  |  |  |
| O=C(O)c1ccc2c(c1)nc(NCCO)c1ccsc12 | 10 | -49.4 |  |  |  |
| O=C(O)c1ccc2c(c1)nc(NCc1ccccn1)c1ccsc12 | 10 | -36.6 |  |  |  |
| O=C(O)c1ccc2c(c1)nc(NCCN1CCOCC1)c1ccsc12 | 10 | -10 |  |  |  |
| O=C(O)c1ccc2c(c1)nc(NCc1ccncc1)c1ccsc12 | 10 | 71.3 |  |  |  |
| COc1ccccc1Nc1nc2cc(C(=O)O)ccc2c2sccc12 | 10 | 0.445 |  |  |  |
| O=C(O)c1ccc2c(c1)nc(Nc1cccc(O)c1)c1ccsc12 | 10 | 6.5 |  |  |  |
| COc1ccc(Nc2nc3cc(C(=O)O)ccc3c3sccc23)c(OC)c1 | 10 | 3.88 |  |  |  |
| O=C(O)c1ccc2c(c1)nc(NCCc1ccccc1)c1ccsc12 | 10 | 19.9 |  |  |  |
| O=C(O)c1ccc2c(c1)nc(Nc1ccc(F)cc1)c1ccsc12 | 10 | 66.7 |  |  | IC50 ([2]; cell-free): 320 nM |
| Cc1ccccc1Nc1nc2cc(C(=O)O)ccc2c2sccc12 | 10 | -15.5 |  |  |  |
| COc1cccc(Nc2nc3cc(C(=O)O)ccc3c3sccc23)c1 | 10 | 23.4 |  |  |  |
| O=C(O)c1ccc2c(c1)nc(Nc1ccc(F)cc1F)c1ccsc12 | 10 | 67.2 |  |  | IC50 ([2]; cell-free): 362 nM |
| O=C(O)c1ccc2c(c1)nc(NC1CC1)c1ccsc12 | 10 | 37.4 |  |  |  |
| O=C(O)c1ccc2c(c1)nc(N1CCc3ccccc31)c1ccsc12 | 10 | -9.95 |  |  |  |
| COc1ccc(Nc2nc3cc(C(=O)O)ccc3c3sccc23)cc1Cl | 10 | -2.65 |  |  |  |
| O=C(O)c1ccc2c(c1)nc(Nc1ccccc1O)c1ccsc12 | 10 | -3.12 |  |  |  |
| O=C(O)c1ccc2c(c1)nc(Nc1ccc(N3CCOCC3)cc1)c1ccsc12 | 10 |  |  |  | inhibition at 0.5 µM [2]: 1.17% |
| COc1ccc(OC)c(Nc2nc3cc(C(=O)O)ccc3c3sccc23)c1 | 10 | -3.22 |  |  |  |
| Fc1ccc(Nc2nc3cc(-c4nnn[nH]4)ccc3c3sccc23)cc1Cl | 10 | 67.4 |  |  | IC50 ([2]; cell-free): 702 nM |

| SMILES | IC50 [1, 3] [µM] | inhibition at 0.5 µM ([2]; 500 nM compound, cell-free) [%] | IC50 [1, 5] [µM] | inhibition at 0.5 µM [2, 6] [%] | also measured |
| --- | --- | --- | --- | --- | --- |
| COc1cccc(Nc2nc3cc(-c4nnn[nH]4)ccc3c3sccc23)c1 | 10 | 55.7 |  |  | IC50 ([2]; cell-free): 352 nM |
| Clc1ccc(Nc2nc3cc(-c4nnn[nH]4)ccc3c3sccc23)cc1 | 10 | 66.4 |  |  | IC50 ([2]; cell-free): 501 nM |
| COc1ccc(Nc2nc3cc(-c4nnn[nH]4)ccc3c3sccc23)cc1Cl | 10 | 25.6 |  |  |  |
| N#Cc1ccc2c(c1)[nH]c(=O)c1ccncc12 |  | -16 |  |  | IC50 [1, 4]: > 10 µM |
| NC(=O)c1ccc2c(c1)[nH]c(=O)c1ccncc12 |  | 4.18 |  |  | IC50 [1, 4]: > 10 µM |
| COc1ccc(Nc2nc3cc(-c4nnn[nH]4)ccc3c3sccc23)cc1 |  | 63 |  |  | IC50 [1, 4]: > 10 µM; IC50 ([2]; cell-free): > 1100 nM |
| CCOc1ccc(Nc2nc3cc(-c4nnn[nH]4)ccc3c3sccc23)cc1 |  | 46.1 |  |  | IC50 [1, 4]: > 10 µM |
| FC(F)(F)Oc1ccc(Nc2nc3cc(-c4nnn[nH]4)ccc3c3sccc23)cc1 |  | 32.5 |  |  | IC50 [1, 4]: > 10 µM |
| c1ccc(COc2ccc(Nc3nc4cc(-c5nnn[nH]5)ccc4c4sccc34)cc2)cc1 |  | 9.03 |  |  | IC50 [1, 4]: 15 µM |
| COc1ccc(Nc2nc3cc(-c4nnn[nH]4)ccc3c3sccc23)cc1OC |  | 55.5 |  |  | IC50 [1, 4]: > 10 µM; IC50 ([2]; cell-free): 809 nM |
| CCOC(=O)c1cccc(Nc2nc3cc(-c4nnn[nH]4)ccc3c3sccc23)c1 |  | 34 |  |  | IC50 [1, 4]: > 10 µM |
| CC(C)c1cccc(Nc2nc3cc(-c4nnn[nH]4)ccc3c3sccc23)c1 |  | 35.9 |  |  | IC50 [1, 4]: > 10 µM |
| c1ccc2c(c1)ncn2-c1nc2cc(-c3nnn[nH]3)ccc2c2sccc12 |  | 71.6 |  |  | IC50 [1, 4]: 15 µM; IC50 ([2]; cell-free): > 1100 nM |
| c1ccc(CNc2nc3cc(-c4nnn[nH]4)ccc3c3sccc23)cc1 |  | -21.2 |  |  | IC50 [1, 4]: > 10 µM |
| FC(F)(F)c1cc(Nc2nc3cc(-c4nnn[nH]4)ccc3c3sccc23)ccc1Cl |  | -46.4 |  |  | IC50 [1, 4]: > 10 µM |
| COc1cc(Nc2nc3cc(-c4nnn[nH]4)ccc3c3sccc23)ccc1C |  | 34.1 |  |  | IC50 [1, 4]: > 10 µM |
| c1cc2c(Nc3ccc4c(c3)OCO4)nc3cc(-c4nnn[nH]4)ccc3c2s1 |  | 18 |  |  | IC50 [1, 4]: > 10 µM |
| CN(C)CCCNc1nc2cc(-c3nnn[nH]3)ccc2c2sccc12 |  | 58.2 |  |  | IC50 [1, 4]: 15 µM; IC50 ([2]; cell-free): 511 nM |
| N#Cc1ccc2c(c1)nc(Nc1ccccc1)c1ccncc12 |  | 2.12 |  |  | IC50 [1, 4]: 6.9 µM |
| CN(C)CCNc1nc2cc(C#N)ccc2c2cnccc12 |  | -11.5 |  |  | IC50 [1, 4]: 1.6 µM |
| CN1CCCN(c2nc3cc(C#N)ccc3c3sccc23)CC1 |  |  | 2.63 | -10 |  |

| SMILES | IC50 [1, 3] [µM] | inhibition at 0.5 µM ([2]; 500 nM compound, cell-free) [%] | IC50 [1, 5] [µM] | inhibition at 0.5 µM [2, 6] [%] | also measured |
| --- | --- | --- | --- | --- | --- |
| N#Cc1ccc2c(c1)nc(NCCN1CCOCC1)c1ccsc12 |  |  | > 10 | -23.8 |  |
| N#Cc1ccc2c(c1)nc(N1CCN(CCO)CC1)c1ccsc12 |  |  | 9.38 | -17.6 |  |
| N#Cc1ccc2c(c1)nc(NCCO)c1ccsc12 |  |  | > 10 | -2.91 |  |
| CN(C)C1CCN(c2nc3cc(C#N)ccc3c3sccc23)C1 (stereo not shown) |  |  | 3.86 | -16.5 |  |
| N#Cc1ccc2c(c1)nc(NCCN1CCCC1)c1ccsc12 |  |  | 2.2 | -22.4 |  |
| CN1CCN(c2nc3cc(C(=O)O)ccc3c3cnccc23)CC1 |  |  | > 10 | 40.1 |  |
| Cc1cnc(CNC(=O)c2ccc3c(c2)nc(N2CCN(C)CC2)c2ccncc23)cn1 |  |  | > 10 | -23.1 |  |
| CN1CCN(c2nc3cc(C(=O)NNc4ccccn4)ccc3c3sccc23)CC1 |  |  | > 10 | -10.9 |  |
| CN1CCN(c2nc3cc(C(=O)NCc4ccncc4)ccc3c3sccc23)CC1 |  |  | > 10 | -14.1 |  |
| CN1CCN(c2nc3cc(C(=O)NCc4cccnc4)ccc3c3sccc23)CC1 |  |  | > 10 | -16 |  |
| CC(C)OCCNC(=O)c1ccc2c(c1)nc(N1CCN(C)CC1)c1ccsc12 |  |  | > 10 | -3.62 |  |
| CN1CCN(c2nc3cc(C(=O)NCC4CCCO4)ccc3c3sccc23)CC1 (stereo not shown) |  |  | > 10 | 11 |  |
| CN1CCN(c2nc3cc(C(=O)NC4CC4)ccc3c3sccc23)CC1 |  |  | > 10 | -12.7 |  |
| CONC(=O)c1ccc2c(c1)nc(N1CCN(C)CC1)c1ccsc12 |  |  | > 10 | -0.965 |  |
| CN1CCN(c2nc3cc(C(=O)NCc4nccn4C)ccc3c3sccc23)CC1 |  |  | > 10 | -14.5 |  |
| CN1CCN(c2nc3cc(C(=O)NCc4cncn4C)ccc3c3sccc23)CC1 |  |  | > 10 | -22.5 |  |
| Cn1nc(-c2ccccc2)cc1Nc1nc2cc(C(=O)O)ccc2c2cnccc12 |  |  | > 10 | 58.3 | IC50 ([2]; cell-free assay): 914 nM |
| COC(=O)c1ccc2c(c1)nc(Nc1ccccc1C)c1nc(SC)ncc12 |  |  | > 10 | 12.5 |  |
| CC(=O)Nc1cccc(Nc2nc3cc(C(=O)O)ccc3c3cnccc23)c1 |  |  | > 10 | 73.6 | IC50 ([2]; cell-free assay): 369 nM |
| NS(=O)(=O)c1cccc(Nc2nc3cc(C(=O)O)ccc3c3cnccc23)c1 |  |  | > 10 | 83.4 | IC50 ([2]; cell-free assay): 397 nM |
